From patent US6355799B1, “Substituted benzene compounds, process for their preparation, and herbicidal and defoliant compositions containing them” (ISK Americas Incorporated, priority 1997, dated 2002)

Key:
Type in all cases: in vivo
[1] = system: redroot pigweed (Amaranthus retroflexus, AMARE); assay: Pre-emerge test, greenhouse herbicide activity screening; details: for Pre-emerge herbicidal activity, phytotoxicity rating AMARE: rating scale 0-100, 14 days after application; for phytotoxicity rating AMARE: pre-emerge, 14 days after application, scale 0-100
Text: (§1) A standard greenhouse herbicide activity screening system was used to evaluate the herbicidal efficacy and crop safety of these test compounds. Seven broadleaf weed species including redroot pigweed (Amaranthus retroflexus, AMARE, velvetleaf (Abutilon theophrasti, ABUTH), sicklepod (Cassia obtusifolia, CASOB), ivyleaf morningglory (Ipomoea hederacea, IPOHE), lambsquarters (Chenopodium album, CHEAL), common ragweed (Ambrosia artemisizfolia L., AMBEL), and cocklebur (Xanthium strumarium, XANST) were used as test species. Four grass weed species including green foxtail (Setaria viridis, SETVI), barnyardgrass (Echinochloa crus-galli, ECHCG), johnsongrass (Sorghum halepense, SORHA), and large crabgrass (Digitaria sanguinalis, DIGSA) were also used. In addition, three crop species, field corn (Zea mays L., var. Dekalb 535, CORN), soybean (Glycine max L., var. Pella 86, SOY), and is upland rice (Oryza sp., var. Tebonnet, RICE) were included.
(§2) All plants were grown in 10 cm square plastic pots which were filled with a sandy loam soil mix. For pre-emerge tests, seeds were planted one day prior to application of the test compounds. For post-emerge tests, seeds were planted 8-21 days prior to the test to allow emergence and good foliage development prior to application of the test substances. At the time of the post-emerge application, plants of all species were usually at the 2-3 leaf stage of development.
All test compounds Were dissolved in acetone and applied to the test units in a volume of 187 l /ha. […] Plants were arranged on a shelf so that the top of the canopy (post-emerge) or top of the soil surface (pre-emerge) was 40-45 cm below the nozzle. Pressurized air was used to force the test solution through the nozzle as it was mechanically advanced (via electrically driven chain drive) over the top of all test plants/pots. This application simulates a typical commercial field herbicide application.
(§3) In the post-emerge test, a commercial non-ionic surfactant was also included (0.25% v/v) to enhance wetting of the leaf surfaces of target plants. Immediately after application, test units of the pre-emerge applications were watered at the soil surface to incorporate the test materials. Subsequently, these test units were bottom-watered. Post-emerge test units were always bottom-watered.
(§4) At 14 days after application of the test materials, phytotoxicity ratings were recorded. A rating scale of 0-100 was used as previously described in Research Methods in Weed Science, 2nd edition, B. Truelove, Ed., Southern Weed Science Society, Auburn University, Auburn, Ala. 1977. Briefly, “0” corresponds to no damage and “100” corresponds to complete death of all plants in the test unit. This scale was used both to determine efficacy against weed species and damage to crop species. Herbicide activity data for various compounds of this invention, which are shown by compound No. in Tables 1-8, are shown in Tables 11 and 12.

[2] = system: barnyardgrass (Echinochloa crus-galli, ECHCG); assay: as above; details: for Pre-emerge herbicidal activity, phytotoxicity rating ECHCG: rating scale 0-100, 14 days after application; for phytotoxicity rating ECHCG: pre-emerge, 14 days after application, scale 0-100
Text: as §1, §2
(§5) All test compounds Were dissolved in acetone and applied to the test units in a volume of 187 l /ha. Test materials were applied at rates ranging from 15 g ai/ha to 1000 g ai/ha using a track sprayer equipped with a TJ8001E even flow flat fan spray nozzle. Plants were arranged on a shelf so that the top of the canopy (post-emerge) or top of the soil surface (pre-emerge) was 40-45 cm below the nozzle. Pressurized air was used to force the test solution through the nozzle as it was mechanically advanced (via electrically driven chain drive) over the top of all test plants/pots. This application simulates a typical commercial field herbicide application.
as §3, §4

[3] = system: green foxtail (Setaria viridis, SETVI); assay: as above; details: for Pre-emerge herbicidal activity, phytotoxicity rating SETVI: rating scale 0-100, 14 days after application; for phytotoxicity rating SETVI: pre-emerge, 14 days after application, scale 0-100
Text: as §1, §2, §5, §3, §4

[4] = system: ivyleaf morningglory (Ipomoea hederacea, IPOHE); assay: as above; details: for Pre-emerge herbicidal activity, phytotoxicity rating IPOHE: rating scale 0-100, 14 days after application; for phytotoxicity rating IPOHE: pre-emerge, 14 days after application, scale 0-100
Text: as §1, §2, §5, §3, §4

[5] = system: lambsquarters (Chenopodium album, CHEAL); assay: as above; details: for Pre-emerge herbicidal activity, phytotoxicity rating CHEAL: rating scale 0-100, 14 days after application; for phytotoxicity rating CHEAL: pre-emerge, 14 days after application, scale 0-100
Text: as §1, §2, §5, §3, §4

[6] = system: large crabgrass (Digitaria sanguinalis, DIGSA); assay: as above; details: for Pre-emerge herbicidal activity, phytotoxicity rating DIGSA: rating scale 0-100, 14 days after application; for phytotoxicity rating DIGSA: pre-emerge, 14 days after application, scale 0-100
Text: as §1, §2, §5, §3, §4

[7] = system: sicklepod (Cassia obtusifolia, CASOB); assay: as above; details: for Pre-emerge herbicidal activity, phytotoxicity rating CASOB: rating scale 0-100, 14 days after application; for phytotoxicity rating CASOB: pre-emerge, 14 days after application, scale 0-100
Text: as §1, §2, §5, §3, §4

[8] = system: velvetleaf (Abutilon theophrasti, ABUTH); assay: as above; details: for Pre-emerge herbicidal activity, phytotoxicity rating ABUTH: rating scale 0-100, 14 days after application; for phytotoxicity rating ABUTH: pre-emerge, 14 days after application, scale 0-100
Text: as §1, §2, §5, §3, §4

[9] = system: barnyardgrass (Echinochloa crus-galli, ECHCG); assay: Post-emerge test, greenhouse herbicide activity screening; details: 14 days after application; for Post-emerge Herbicidal Activity, phytotoxicity rating ECHCG: rating scale 0-100 (0 no damage, 100 complete death); for ECHCG phytotoxicity rating: post-emerge, rating scale 0-100
Text: as §1, §2, §5, §3, §4

[10] = system: green foxtail (Setaria viridis, SETVI); assay: as above; details: 14 days after application; for Post-emerge Herbicidal Activity, phytotoxicity rating SETVI: rating scale 0-100 (0 no damage, 100 complete death); for SETVI phytotoxicity rating: post-emerge, rating scale 0-100
Text: as §1, §2, §5, §3, §4

[11] = system: ivyleaf morningglory (Ipomoea hederacea, IPOHE); assay: as above; details: 14 days after application; for Post-emerge Herbicidal Activity, phytotoxicity rating IPOHE: rating scale 0-100 (0 no damage, 100 complete death); for IPOHE phytotoxicity rating: post-emerge, rating scale 0-100
Text: as §1, §2, §5, §3, §4

[12] = system: lambsquarters (Chenopodium album, CHEAL); assay: as above; details: 14 days after application; for Post-emerge Herbicidal Activity, phytotoxicity rating CHEAL: rating scale 0-100 (0 no damage, 100 complete death); for CHEAL phytotoxicity rating: post-emerge, rating scale 0-100
Text: as §1, §2, §5, §3, §4

[13] = system: large crabgrass (Digitaria sanguinalis, DIGSA); assay: as above; details: 14 days after application; for Post-emerge Herbicidal Activity, phytotoxicity rating DIGSA: rating scale 0-100 (0 no damage, 100 complete death); for DIGSA phytotoxicity rating: post-emerge, rating scale 0-100
Text: as §1, §2, §5, §3, §4

[14] = system: redroot pigweed (Amaranthus retroflexus, AMARE); assay: as above; details: 14 days after application; for Post-emerge Herbicidal Activity, phytotoxicity rating AMARE: rating scale 0-100 (0 no damage, 100 complete death); for AMARE phytotoxicity rating: post-emerge, rating scale 0-100
Text: as §1, §2, §5, §3, §4

[15] = system: sicklepod (Cassia obtusifolia, CASOB); assay: as above; details: 14 days after application; for Post-emerge Herbicidal Activity, phytotoxicity rating CASOB: rating scale 0-100 (0 no damage, 100 complete death); for CASOB phytotoxicity rating: post-emerge, rating scale 0-100
Text: as §1, §2, §5, §3, §4

[16] = system: velvetleaf (Abutilon theophrasti, ABUTH); assay: as above; details: 14 days after application; for Post-emerge Herbicidal Activity, phytotoxicity rating ABUTH: rating scale 0-100 (0 no damage, 100 complete death); for ABUTH phytotoxicity rating: post-emerge, rating scale 0-100
Text: as §1, §2, §5, §3, §4

`CCOC(=O)C(Cl)Cc1c(OC)c(Cl)cc(F)c1-n1c(=O)cc(C(F)(F)F)n(C)c1=O` (single isomer, unassigned) [Compound 14-5, 3-{4-chloro-2-[2-chloro-2-(ethoxycarbonyl)ethyl]-6-fluoro-3-methoxyphenyl}-1-methyl-6-trifluoromethyl-2,4(1H, 3H)-pyrimidinedione] was tested, and the “Pre-emerge herbicidal activity, phytotoxicity rating AMARE” value ([1]; 63 g ai/ha) was 70, the “Pre-emerge herbicidal activity, phytotoxicity rating AMARE” value ([1]; 250 g ai/ha) was 100 and the “Pre-emerge herbicidal activity, phytotoxicity rating ECHCG” value ([2]; 63 g ai/ha) was 0. The “Pre-emerge herbicidal activity, phytotoxicity rating ECHCG” value ([2]; 250 g ai/ha) was 40, the “Pre-emerge herbicidal activity, phytotoxicity rating SETVI” value ([3]; 63 g ai/ha) was 10 and the “Pre-emerge herbicidal activity, phytotoxicity rating SETVI” value ([3]; 250 g ai/ha) was 60. The “Pre-emerge herbicidal activity, phytotoxicity rating IPOHE” value ([4]; 63 g ai/ha) was 20, the “Pre-emerge herbicidal activity, phytotoxicity rating IPOHE” value ([4]; 250 g ai/ha) was 30 and the “Pre-emerge herbicidal activity, phytotoxicity rating CHEAL” value ([5]; 63 g ai/ha) was 70. For the same molecule, the “Pre-emerge herbicidal activity, phytotoxicity rating CHEAL” value ([5]; 250 g ai/ha) was 100, the “Pre-emerge herbicidal activity, phytotoxicity rating DIGSA” value ([6]; 63 g ai/ha) was 20 and the “Pre-emerge herbicidal activity, phytotoxicity rating DIGSA” value ([6]; 250 g ai/ha) was 95. For the same molecule, the “Pre-emerge herbicidal activity, phytotoxicity rating CASOB” value ([7]; 63 g ai/ha) was 0, the “Pre-emerge herbicidal activity, phytotoxicity rating CASOB” value ([7]; 250 g ai/ha) was 10 and the “Pre-emerge herbicidal activity, phytotoxicity rating ABUTH” value ([8]; 63 g ai/ha) was 100. The “Pre-emerge herbicidal activity, phytotoxicity rating ABUTH” value ([8]; 250 g ai/ha) was 100, the “Post-emerge Herbicidal Activity, phytotoxicity rating ECHCG” value ([9]; Rate 63 g ai/ha) was 40 and the “Post-emerge Herbicidal Activity, phytotoxicity rating ECHCG” value ([9]; Rate 250 g ai/ha) was 100. The “Post-emerge Herbicidal Activity, phytotoxicity rating SETVI” value ([10]; Rate 63 g ai/ha) was 60, the “Post-emerge Herbicidal Activity, phytotoxicity rating SETVI” value ([10]; Rate 250 g ai/ha) was 95 and the “Post-emerge Herbicidal Activity, phytotoxicity rating IPOHE” value ([11]; Rate 63 g ai/ha) was 30. The “Post-emerge Herbicidal Activity, phytotoxicity rating IPOHE” value ([11]; Rate 250 g ai/ha) was 100, the “Post-emerge Herbicidal Activity, phytotoxicity rating CHEAL” value ([12]; Rate 63 g ai/ha) was 100 and the “Post-emerge Herbicidal Activity, phytotoxicity rating CHEAL” value ([12]; Rate 250 g ai/ha) was 100. For the same molecule, the “Post-emerge Herbicidal Activity, phytotoxicity rating DIGSA” value ([13]; Rate 63 g ai/ha) was 95, the “Post-emerge Herbicidal Activity, phytotoxicity rating DIGSA” value ([13]; Rate 250 g ai/ha) was 100 and the “Post-emerge Herbicidal Activity, phytotoxicity rating AMARE” value ([14]; Rate 63 g ai/ha) was 100. For the same molecule, the “Post-emerge Herbicidal Activity, phytotoxicity rating AMARE” value ([14]; Rate 250 g ai/ha) was 100, the “Post-emerge Herbicidal Activity, phytotoxicity rating CASOB” value ([15]; Rate 63 g ai/ha) was 10 and the “Post-emerge Herbicidal Activity, phytotoxicity rating CASOB” value ([15]; Rate 250 g ai/ha) was 50. The “Post-emerge Herbicidal Activity, phytotoxicity rating ABUTH” value ([16]; Rate 63 g ai/ha) was 100 and the “Post-emerge Herbicidal Activity, phytotoxicity rating ABUTH” value ([16]; Rate 250 g ai/ha) was 100.
For `Cn1c(C(F)(F)F)cc(=O)n(-c2ccc(Cl)cc2NC(=O)c2ccc3ccccc3c2)c1=O` [Compound 2-131, 3-[4-chloro-2-(2-naphthoylamino)phenyl]-1-methyl-6-trifluoromethyl-2,4(1H, 3H)-pyrimidinedione], the “phytotoxicity rating AMARE” value ([1]; 63 g ai/ha) was 90, the “phytotoxicity rating AMARE” value ([1]; 250 g ai/ha) was 95 and the “phytotoxicity rating ECHCG” value ([2]; 63 g ai/ha) was 10. The “phytotoxicity rating ECHCG” value ([2]; 250 g ai/ha) was 60, the “phytotoxicity rating SETVI” value ([3]; 63 g ai/ha) was 40 and the “phytotoxicity rating SETVI” value ([3]; 250 g ai/ha) was 90. For the same molecule, the “phytotoxicity rating IPOHE” value ([4]; 63 g ai/ha) was 30, the “phytotoxicity rating IPOHE” value ([4]; 250 g ai/ha) was 85 and the “phytotoxicity rating CHEAL” value ([5]; 63 g ai/ha) was 90. The “phytotoxicity rating CHEAL” value ([5]; 250 g ai/ha) was 100, the “phytotoxicity rating DIGSA” value ([6]; 63 g ai/ha) was 40 and the “phytotoxicity rating DIGSA” value ([6]; 250 g ai/ha) was 80. For the same molecule, the “phytotoxicity rating CASOB” value ([7]; 63 g ai/ha) was 60, the “phytotoxicity rating CASOB” value ([7]; 250 g ai/ha) was 95 and the “phytotoxicity rating ABUTH” value ([8]; 63 g ai/ha) was 85. The “phytotoxicity rating ABUTH” value ([8]; 250 g ai/ha) was 100, the ECHCG phytotoxicity rating ([9]; 63 g ai/ha) was 30 and the ECHCG phytotoxicity rating ([9]; 250 g ai/ha) was 60. The SETVI phytotoxicity rating ([10]; 63 g ai/ha) was 70, the SETVI phytotoxicity rating ([10]; 250 g ai/ha) was 90 and the IPOHE phytotoxicity rating ([11]; 63 g ai/ha) was 100. The IPOHE phytotoxicity rating ([11]; 250 g ai/ha) was 100, the CHEAL phytotoxicity rating ([12]; 63 g ai/ha) was 100 and the CHEAL phytotoxicity rating ([12]; 250 g ai/ha) was 100. For the same molecule, the DIGSA phytotoxicity rating ([13]; 63 g ai/ha) was 30, the DIGSA phytotoxicity rating ([13]; 250 g ai/ha) was 70 and the AMARE phytotoxicity rating ([14]; 63 g ai/ha) was 100. For the same molecule, the AMARE phytotoxicity rating ([14]; 250 g ai/ha) was 100, the CASOB phytotoxicity rating ([15]; 63 g ai/ha) was 80 and the CASOB phytotoxicity rating ([15]; 250 g ai/ha) was 100. For the same molecule, the ABUTH phytotoxicity rating ([16]; 63 g ai/ha) was 100 and the ABUTH phytotoxicity rating ([16]; 250 g ai/ha) was 100.
